One series addresses BTK WT (Homo sapiens (Human), UniProt Q06187). As to the kind of experiment: Lantha screening kinase reaction, inhibition of BTK WT. The format is biochemical. How it is done:
The compound was predissolved in 100% DMSO. 10 mM drug stock solution was obtained by dissolution at room temperature and then serially diluted with 8 vol % DMSO solution to a final concentration of 10-0.005 μM. […] Among the wells, the kinase in the blank well was replaced with a reaction buffer and the kinase well (Enzyme) was not added with any drug. After shaking at 25° C. for 60 minutes in the dark, 10 μl of Detection Solution (mixture of Invitrogen PV3528 and EDTA, which was diluted with TR-FRET dilution buffer, the working concentration of EDTA was 5 mM, the working concentration of Lanthascreening Tb PY20 antibody was 0.2 nM) was added and shaken at room temperature for 30 minutes. The plates were read on a VictorX5 fluorescent plate reader (PerkinElmer) and the light absorption at an excitation wavelength of 340 nm and emission wavelengths of 500 nm and 520 nm was measured.
The calculation method for the inhibition ratio (referring to the specification of Invitrogen, PV3363) was as follows: Emission ratio (ER):Coumarin Emission (520 nm)/Fluorescein Emission (500 nm) 1. The inhibition ratio (IR):(ERkinase−ERtest compound)/(ERkinase−ERblank)×100%. 2.
The half-inhibitory concentration IC50 was calculated by fitting with XLFIT5.0 software (IDBS, UK).

The next series deals with wild-type EGFR kinase (Homo sapiens (Human), UniProt P00533). As to the kind of experiment: Wild type EGFR kinase inhibition test (z-lyte). The format is biochemical. Particulars: 10 μM ATP; read-out: EGFR WT IC50. The source says: All the following reagents used in z-lyte test are commercially available from Invitrogen.
wild-type EGFR kinase, sequence (P00533 25-1210): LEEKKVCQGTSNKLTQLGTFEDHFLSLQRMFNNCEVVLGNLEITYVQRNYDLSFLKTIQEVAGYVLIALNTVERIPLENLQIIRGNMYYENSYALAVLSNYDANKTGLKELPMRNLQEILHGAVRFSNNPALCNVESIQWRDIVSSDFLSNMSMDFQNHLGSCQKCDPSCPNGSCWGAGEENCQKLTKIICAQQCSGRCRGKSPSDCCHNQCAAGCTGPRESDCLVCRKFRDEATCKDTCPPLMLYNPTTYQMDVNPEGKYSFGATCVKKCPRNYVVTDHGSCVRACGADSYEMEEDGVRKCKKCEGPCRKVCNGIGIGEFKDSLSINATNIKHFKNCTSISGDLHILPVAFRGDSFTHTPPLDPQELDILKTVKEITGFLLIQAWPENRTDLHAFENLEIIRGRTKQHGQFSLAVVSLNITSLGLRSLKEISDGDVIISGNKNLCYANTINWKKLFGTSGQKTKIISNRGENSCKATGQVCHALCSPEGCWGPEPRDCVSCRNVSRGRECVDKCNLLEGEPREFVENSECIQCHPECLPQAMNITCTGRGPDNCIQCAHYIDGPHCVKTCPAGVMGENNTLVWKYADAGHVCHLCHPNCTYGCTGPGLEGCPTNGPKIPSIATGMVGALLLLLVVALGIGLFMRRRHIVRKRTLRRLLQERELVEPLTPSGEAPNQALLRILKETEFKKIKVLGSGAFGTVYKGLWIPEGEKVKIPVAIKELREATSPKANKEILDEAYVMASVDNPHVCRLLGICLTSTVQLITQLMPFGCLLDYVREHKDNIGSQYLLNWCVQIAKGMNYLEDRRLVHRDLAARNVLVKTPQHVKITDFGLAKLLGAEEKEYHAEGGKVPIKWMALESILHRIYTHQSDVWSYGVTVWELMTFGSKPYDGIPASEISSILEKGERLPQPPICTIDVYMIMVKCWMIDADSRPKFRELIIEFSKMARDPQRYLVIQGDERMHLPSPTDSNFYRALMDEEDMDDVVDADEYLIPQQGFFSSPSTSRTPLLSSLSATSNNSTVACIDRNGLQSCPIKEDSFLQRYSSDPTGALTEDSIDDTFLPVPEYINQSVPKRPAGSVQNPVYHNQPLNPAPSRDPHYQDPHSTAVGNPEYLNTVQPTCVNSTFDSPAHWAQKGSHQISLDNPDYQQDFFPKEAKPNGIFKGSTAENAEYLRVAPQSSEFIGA
The calculation method for the inhibition ratio (referring to the specification of Invitrogen, PV3363) was as follows: ER=Coumarin Emission(450 nm)/Fluorescein Emission(520 nm) 1. Phosphorylation ratio=(1−((ER×C3520nm−C3450nm)/((C1450nm−C3450nm)+ER×(C3520nm−C1520nm))))×100% 2. Inhibition ratio (IR)=(1−phosphorylation ratio of the test compound)/(phosphorylation ratio of C2))×100% 3.
The half-inhibitory concentration IC50 was calculated by fitting with XLFIT 5.0 software (IDBS, UK).

The nature of the next series: in vivo. Particulars: male, ICR, mouse, in vivo, po, 30 mg/kg. The method, then: Test Animals: ICR mice, weight 28-30 g, male, totally 12, purchased from SLAC Laboratory Animal Co., Ltd. Mice were fasting one night before administration and freely fed 4 hours after administration.
Administration and Blood collection: 6 mice were administered intragastrically (PO) in a administered dosage of 30 mg/kg and a administered volume of 10 mL/kg. One administration route was subjected with 6 mice, blood samples of three mice were collected at one time point, and blood samples of another three mice were collected at alternate time point alternately. Blood was collected at 8 time points of 0.083, 0.25, 0.5, 1, 2, 4, 8, 24 h after administration respectively.
Animals were manually controlled at the time of collection and approximately 80 μL of blood was collected from the mice fundus venous plexus into a tube containing K2EDTA. The collected blood sample was put on wet ice, centrifuged within 15 min (8000 rpm, 4 min at 4° C.), and then the plasma sample was taken and stored at minus 20° C. till analysis. The compounds were prepared on the day of the experiment.
Solvent excipient information: DMSO (brand: Sigma, batch number: SHBD2446V); 2-hydroxypropyl-3-cyclodextrin (brand: Sigma, batch number: BCBN8227V), acetic acid (brand: Sinopharm Group, batch number: 20150616), sodium acetate (Brand: GENERAL-REAGENT, batch number: P1246037).
Preparation of a 3 mg/mL PO dosing solution: the solvent was a solution of 5% DMSO and 95% PH4.5 (sodium acetate-acetate) in 20% of 2-hydroxypropyl-β-cyclodextrin.
Analytical method: Plasma samples were analyzed by liquid chromatography-tandem mass spectrometry (Instrument type: Triple Quad™ 4000).
Preparation of the standard curve: preparing a standard curve of the test compound 1n the plasma matrix of ICR mice with a linear range of 1.00-3000 ng/mL, and preparing control samples at low, medium and high concentrations of 3 ng/mL, 500 ng/mL, and 2400 ng/mL respectively.
Treatment of biological samples: the frozen plasma samples were thawed on ice, and after the samples were thawed, they were vortexed on a vortex for 5 min. 20 μL of plasma sample was added to a 96-well plate, and 200 μL of acetonitrile (brand: Merck, Lot: 1854029643) containing an internal standard dexamethasone (Brand: NIFDC, Lot: 1N2V-DPGY, 2000 ng/mL) was added to precipitate protein, which were vortexed for 5 min, and then centrifuged at 3700 rpm and 4° C. for 15 min. The supernatant was extracted and twice centrifuged under the same conditions, and finally 2 μL of the supernatant solution was analyzed by LC-MS/MS.

30 compounds from patent publication US11155546B2, “4,6,7-trisubstituted 1,2-dihydropyrrolo[3,4-c]pyridin/pyrimidin-3-one derivatives and uses thereof” (SHANGHAI HAIYAN PHARMACEUTICAL TECHNOLOGY CO., LTD., priority 2017, dated 2021) can be followed below.

BTK WT, sequence (Q06187 whole entry): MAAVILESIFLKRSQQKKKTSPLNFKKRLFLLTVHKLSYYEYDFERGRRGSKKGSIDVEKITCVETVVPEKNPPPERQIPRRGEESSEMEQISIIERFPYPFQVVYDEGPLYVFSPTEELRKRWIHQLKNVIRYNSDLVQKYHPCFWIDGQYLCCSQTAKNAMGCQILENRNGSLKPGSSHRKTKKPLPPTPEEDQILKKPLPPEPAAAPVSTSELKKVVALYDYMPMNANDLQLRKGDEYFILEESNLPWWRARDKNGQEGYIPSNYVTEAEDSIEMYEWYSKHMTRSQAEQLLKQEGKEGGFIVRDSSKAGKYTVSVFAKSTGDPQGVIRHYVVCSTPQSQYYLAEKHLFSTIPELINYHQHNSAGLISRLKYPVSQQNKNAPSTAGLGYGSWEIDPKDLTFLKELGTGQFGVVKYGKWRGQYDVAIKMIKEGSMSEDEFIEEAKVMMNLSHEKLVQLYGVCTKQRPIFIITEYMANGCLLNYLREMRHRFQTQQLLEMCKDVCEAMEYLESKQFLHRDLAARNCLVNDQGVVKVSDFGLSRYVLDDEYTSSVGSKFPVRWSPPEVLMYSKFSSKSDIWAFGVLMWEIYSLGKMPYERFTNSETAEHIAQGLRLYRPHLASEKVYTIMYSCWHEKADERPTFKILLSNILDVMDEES

The IC50 is the concentration that inhibits the measured activity by half. For the compound `C=CC(=O)N1CCCC(N(CC)c2nc(Nc3ccc(N4CCOCC4)cc3)c3c(c2F)CNC3=O)C1` (stereo not drawn) [Compound G-74, 6-((1-acryloylpiperidin-3-yl)(ethyl)amino)-7-fluoro-4-(4-morpholin)-1H-pyrrolo[3,4-c]pyridine-3(2H)-one], the IC50 worked out at 7 nM against BTK WT and 1370 nM on wild-type EGFR kinase. Take `C=CC(=O)N1CCCC(Nc2nc(-c3cnn(C)c3)c3c(c2F)CNC3=O)C1` (stereo not drawn) [Compound G-54]: the IC50 against BTK WT is 15 nM; at wild-type EGFR kinase, greater than 10000 nM. As for `C=CC(=O)N1C[C@H](Nc2nc(Nc3ccc(N4CCN(C5COC5)C[C@@H]4C)c(F)c3)c3c(c2F)CNC3=O)CC[C@@H]1C` [Compound G-95], on BTK WT, it took 5 nM to reach half-maximal inhibition (IC50). As for `C=CC(=O)N1CCCC(N(C)c2nc(Nc3cnn(C)c3)c3c(c2F)CNC3=O)C1` (stereo not drawn) [Compound G-70, 6-((1-acryloylpiperidin-3-yl)(methyl)amino)-7-fluoro-4-(1-methyl-1H-pyrazole-4-ylamino)-1H-pyrrolo[3,4-c]pyridine-3(2H)-one], the IC50 was 5 nM at BTK WT and greater than 10000 nM on wild-type EGFR kinase.

On to `C=CC(=O)N1CCCC(Nc2nc(Nc3ccc(OCCO)cc3)c3c(c2F)CNC3=O)C1` (stereo not drawn) [Compound G-16], for which the IC50 came to 2 nM against BTK WT and 2750 nM on wild-type EGFR kinase. On BTK WT, `C=CC(=O)N1CC2CN(c3nc(-c4cnn(C)c4)c4c(c3F)CNC4=O)CC2C1` (stereo not drawn) [Compound G-89] showed an IC50 of 5 nM. On the same count and under the same terms, in the case of `C=CC(=O)N1C[C@H](N(C)c2nc(Nc3ccc(N4CCOCC4)c(F)c3)c3c(c2F)CNC3=O)CC[C@@H]1C` [Compound G-92] it was 8 nM.

Consider `C=CC(=O)N1CCC[C@@H](Nc2nc(Nc3ccc(N4CCOC[C@@H]4C)cc3F)c3c(c2F)CNC3=O)C1` [Compound G-102], for which, on BTK WT, the IC50 is 5 nM. For `C=CC(=O)N1CCC[C@@H](N(C)c2nc(-c3c[nH]c(C)n3)c3c(c2F)CNC3=O)C1` [Compound G-105], on BTK WT, the midpoint of inhibition, the IC50, lay at 8 nM. The same measure, in the same setting: the same measure for `C=CC(=O)N1CCCC(Nc2nc(Nc3ccc(N4CCN(C5COC5)CC4C)cn3)c3c(c2F)CNC3=O)C1` (stereo not drawn) [Compound G-22]: 66 nM; for `C=CC(=O)N1CCC[C@@H](Nc2nc(Nc3ccc(CN4CCOCC4)cc3)c3c(c2F)CNC3=O)C1` [Compound G-97]: 5 nM. Turning to `C=CC(=O)N1CCCCC(N(C)c2nc(Nc3ccc(N4CCOCC4)cc3)c3c(c2F)CNC3=O)C1` (stereo not drawn) [Compound G-73, 6-((1-acryloylazacycloheptan-3-yl)(methyl)amino)-7-fluoro-4-(4-morpholin)-1H-pyrrolo[3,4-c]pyridine-3(2H)-one], the IC50 turned out to be 5 nM at BTK WT and 1560 nM at wild-type EGFR kinase. Turning to `C=CC(=O)N1CCCC(Nc2nc(Nc3cnn(C)c3)c3c(c2F)CNC3=O)C1` (stereo not drawn) [Compound G-38], the IC50 came out at 2 nM against BTK WT and 1290 nM on wild-type EGFR kinase.

Regarding `C=CC(=O)N1CCCC(Nc2nc3c(c(-c4cnn(C)c4)n2)C(=O)NC3)C1` (stereo not drawn) [Compound G-58, 2-(1-acryloylpiperidin-3-ylamino)-4-(1-methyl-1H-pyrazole-4-yl)-6,7-dihydrogen-5H-pyrrolo[3,4-d]pyrimidine-5(2H)-one], the results for the half-maximal inhibitory concentration (IC50) on BTK WT and at wild-type EGFR kinase were 80 nM and greater than 10000 nM, respectively. As for `C=CC(=O)N1CCCC(Nc2nc(Nc3ccc(N4CCN(C)CC4)nc3)c3c(c2F)CNC3=O)C1` (stereo not drawn) [Compound G-18], the IC50 amounted to 41 nM against BTK WT and 1600 nM at wild-type EGFR kinase. As to `C=CC(=O)N1CCCC(N(C)c2nc3c(c(Nc4cnn(C)c4)n2)C(=O)NC3)C1` (stereo not drawn) [Compound G-75, 2-((1-acryloylpiperidin-3-yl)(methyl)amino)-4-(1-methyl-1H-pyrazole-4-ylamino)-6,7-dihydrogen-5H-pyrrolo[3,4-d]pyrimidine-5-one], the results for the IC50 on BTK WT and at wild-type EGFR kinase were 6 nM and 1630 nM, respectively. On to `C=CC(=O)N1CC(N(C)c2nc(-c3cnn(C)c3)c3c(c2F)CNC3=O)CCC1C` (stereo not drawn) [Compound G-65, 6-((1-acryloyl-6-methylpiperidin-3-yl)(methyl)amino)-7-fluoro-4-(1-methyl-1H-pyrazole-4-yl)-1H-pyrrolo[3,4-c]pyridine-3(2H)-one], for which the IC50 against BTK WT was 7 nM; on wild-type EGFR kinase, greater than 10000 nM. With `C=CC(=O)N1CCC2(CCN(c3nc(-c4cnn(C)c4)c4c(c3F)CNC4=O)C2)C1` (stereo not drawn) [Compound G-77], the IC50 is 51 nM on BTK WT and greater than 10000 nM at wild-type EGFR kinase.

On BTK WT, `C=CC(=O)N1CCC[C@@H](N(C)c2nc(-c3cnc(C)s3)c3c(c2F)CNC3=O)C1` [Compound G-94] gave a half-inhibitory concentration (IC50) of 20 nM. For `C=CC(=O)N1CC2CCN(c3nc(Nc4cnn(C)c4)c4c(c3F)CNC4=O)C2C1` (stereo not drawn) [Compound G-84], the figures for the IC50 at BTK WT and at wild-type EGFR kinase were 89 nM and greater than 10000 nM, respectively. The corresponding values for `C=CC(=O)N1CCCC(N(C)c2nc(-c3cnc(C)s3)c3c(c2F)CNC3=O)C1` (stereo not drawn) [Compound G-66, 6-((1-acryloylpiperidin-3-yl)(methyl)amino)-7-fluoro-4-(2-methylthiazole-5-yl)-1H-pyrrolo[3,4-c]pyridine-3(2H)-one] are 15 nM and greater than 10000 nM. One may read the AUC as concentration integrated over time. A high value points to high exposure. As a reminder, the Cmax is the highest concentration seen after dosing. For orientation: Tmax means the time at which the peak concentration occurs. For orientation: bioavailability means the share of a dose that reaches the circulation, judged against a reference dose that is usually intravenous. Read a low bioavailability as little systemic uptake. For orientation: half-life means how long it takes for the measured level to halve. Take `C=CC(=O)N1CCC[C@@H](Nc2nc(Nc3ccc(N4CCN(C5COC5)C[C@@H]4C)c(F)c3)c3c(c2F)CNC3=O)C1` [Compound G-91]: in “in vivo”, the AUC worked out at 3150 ng·h/mL, the Cmax came to 2910 ng/mL, the Tmax came out at 15 min and the bioavailability was found to be 21.3%. Moreover, the half-life in “in vivo” is 282 min. At BTK WT, this compound gave an IC50 of 5 nM. Consider `C=CC(=O)N1CCCC(Nc2nc(Nc3ccc(C(=O)N4CCOCC4)cc3)c3c(c2F)CNC3=O)C1` (stereo not drawn) [Compound G-24], for which the IC50 against BTK WT came to 5 nM; at wild-type EGFR kinase, 1790 nM.

For `C=CC(=O)N1CCC[C@H](Nc2nc(-c3cnn(C)c3)c3c(c2F)CNC3=O)[C@@H]1C` [Compound G-109], the IC50 is 62 nM on BTK WT and 6820 nM at wild-type EGFR kinase. On to `C=CC(=O)N1CCCCC(Nc2nc(-c3cnn(C)c3)c3c(c2F)CNC3=O)C1` (stereo not drawn) [Compound G-47], for which the figures for the IC50 at BTK WT and on wild-type EGFR kinase were 75 nM and greater than 10000 nM, respectively. As for `C=CC(=O)N1CCC[C@H](N(C)c2nc(-c3cnn(C)c3)c3c(c2F)CNC3=O)C1` [Compound G-112], the IC50 against BTK WT was 18 nM; at wild-type EGFR kinase, greater than 10000 nM. As to `C=CC(=O)N1CCCC(N(C)c2nc(-c3cnn(CCN4CCOCC4)c3)c3c(c2F)CNC3=O)C1` (stereo not drawn) [Compound G-64, 6-((1-acryloylpiperidin-3-yl)(methyl)amino)-7-fluoro-4-(1-(2-morpholinethyl)-1H-pyrazole-4-yl)-1H-pyrrolo[3,4-c]pyridine-3(2H)-one], the IC50 against BTK WT is 62 nM; at wild-type EGFR kinase, greater than 10000 nM. Turning to `C=CC(=O)N1C[C@H](N(C)c2nc(-c3cnn(C)c3)c3c(c2F)CNC3=O)CC[C@H]1C` [Compound G-99], at BTK WT, the IC50 was found to be 18 nM. Turning to `C=CC(=O)N1CCC(Nc2nc(Nc3ccc(OCCOC)cc3)c3c(c2F)CNC3=O)C1` (stereo not drawn) [Compound G-9], the IC50 against BTK WT is 7 nM; on wild-type EGFR kinase, 1010 nM.

`C=CC(=O)N1CCC[C@@H](Nc2cc3c(c(Nc4ccc(N5CCOCC5)cc4)n2)C(=O)NC3)C1` [Compound G-107] gave a half-maximal inhibitory concentration (IC50) at BTK WT of 5 nM.
